# Experimental data from patent US11578343B2, “CAS9 proteins including ligand-dependent inteins” (President and Fellows of Harvard College, priority 2014, dated 2023).
# Tested on: HEK293-GFP stable cells
# Test: Western blot analysis of intein splicing
# Format: cell-based, human
# Conditions: FIG. 6
# Experimental: FIGS. 6A-6B. […] 12 h after transfection, cells were treated with or without 4-HT (1 μM). Cells were lysed and pooled from three technical replicates 4, 8, 12, or 24 h after 4-HT treatment. An anti-FLAG antibody (Sigma-Aldrich F1804) and an anti-mouse 800CW IRDye (LI-COR) were used to visualize the gel. Lanes 1 and 2 contain purified dCas9-VP64-3×FLAG protein and lysate from untransfected HEK293 cells, respectively.
# Western blot analysis of intein splicing. HEK293-GFP stable cells were transfected with 500 ng Cas9 expression plasmid and 125 ng sgRNA expression plasmid. 12 h after transfection, the media was replaced with full serum media, with or without 4-HT (1 μM). Cells were lysed and pooled from three technical replicates 4, 8, 12, or 24 h after 4-HT treatment. Samples were run on a Bolt 4-12% Bis-Tris gel (Life Technologies). An anti-FLAG antibody (Sigma-Aldrich F1804) and an anti-mouse 800CW IRDye (LI-COR) were used to visualize the gel on an Odyssey IR imager.
substance,measurement,setting,value
intein(Ser219)-Cas9: Cas9 with 37R3-2 intein replacing Ser219 (SEQ ID NO: 30),Spliced product (Western blot),absence of 4-HT,no spliced product was detected
same,Spliced product (Western blot),earliest assayed time point (4 h) following 4-HT treatment (1 μM),presence of spliced product
